Several values for one entry are separate records, joined by “and”; a condition that tells them apart may be missing. Equal entries are not always repeated.
What was measured:
human red blood cells = assay: Haemolysis assay (CO-ADD); format: cell-based
[1] = test system: MRSA (G+) strain ATCC 43300; assay: Antimicrobial growth inhibition (CO-ADD), MRSA; format: cell-based, Staphylococcus aureus; conditions: Staphylococcus aureus; ATCC 43300; MIC = concentration at which growth inhibited by ≥80%, range 0.25−32 µg/mL; read-out: MIC MRSA
Description: (§1) Compounds 1−3 and 5−12 were assayed against a selection of medically important pathogenic microorganisms (MRSA, E. coli, K. pneumoniae, A. baumanii, P. aeruginosa, C. albicans, C. neoformans), Table 4. […] To the best of our knowledge this compound had not been tested against any drug resistant strain of Gram-positive bacterium until this study.
(§2) The antimicrobial activity testing was performed by the Community for Antimicrobial Drug Discovery (CO-ADD). Compounds were assayed against a range of both Gram negative and Gram positive bacteria (see Supplementary Materials S3) including methicillin-resistant Staphylococcus aureus (MRSA) (G+), Escherichia coli (G-), Klebsiella pneumoniae (G-), Acinetobacter baumannii (G-), Pseudomonas aeruginosa (G-) together with two species of fungus (Candida albicans and Cryptococcus neoformans).
(§3) S3. Antimicrobial activity testing methodology
(§4) The compounds submitted to CO-ADD were evaluated in duplicate (n = 2) against seven microorganisms (five bacteria and two fungi) at a concentration of 32 µg/mL in a 384-well, non-binding surface plate (NBS) for each bacterial/fungal strain, keeping the final DMSO concentration to a maximum of 1% DMSO. All bacteria were cultured in cation-adjusted Mueller-Hinton broth (CAMHB) at 37 °C overnight. A sample of each culture was then diluted 40-fold in fresh broth and incubated at 37 °C for 1.5-3 h. The resultant mid-log phase cultures were diluted (CFU/mL measured by OD600), then added to each well of the compound containing plates, giving a cell density of 5x10^5 CFU/mL and a total volume of 50 µL. All the plates were covered and incubated at 37 °C for 18 h without shaking. […] Inhibition of bacterial growth was determined measuring absorbance at 600 nm (OD600) using a Tecan M1000 Pro mon-ochromator plate reader. […]
(§5) 2 h. The absorbance was measured using a Biotek Synergy HTX plate reader. The percentage of growth inhibition was calculated for each well, using negative control (medium only) and positive control (bacteria without inhibitors) on the same plate as the references. The significance of inhibition values was determined by modified Z-scores, calculated using the median and MAD of the samples (no controls) on the same plate. Samples with inhibition value above 80% and Z-score above 2.5 for either replicate (n = 2 on different plates) were classed as actives.
(§6) Colistin and vancomycin were used as positive bacterial inhibitor standards for Gram-negative and Gram-positive bac-teria, respectively. Fluconazole was used as a positive fungal inhibitor standard for C. albicans and C. neoformans. The antibiotics were provided in four concentrations, with two above and two below its MIC value, and plated into the first eight wells of column 23 of the 384-well NBS plates. The quality control (QC) of the assays was determined by the antimicrobial controls and the Z’-factor (using positive and negative controls). Each plate was deemed to fulfil the qual- […]
(§7) full growth inhibition at their highest concentration, and no growth inhibition at their lowest concentration. The seven […]
(§8) test microorganisms were Staphylococcus aureus MRSA (ATCC 43300), Escherichia coli (ATCC 25922), Klebsiella pneu-moniae (ATCC 700603), Acinetobacter baumanii (ATCC19606), Pseudomonas aeruginosa (ATCC 27853), Candida albicans (ATCC 90028) and Cryptococcus neoformans var. grubii (H99; ATCC 208821).
(§9) S4. Anthelmintic activity testing methodology
(§10) Dose-response evaluations were carried out to estimate the half-maximal inhibitory concentrations (IC50 values) for compounds against Haemonchus contortus (Haecon-5 strain) exsheathed third-stage larvae (xL3s). H. contortus were maintained in experimental sheep and procured in accordance with the institutional animal ethics guidelines and the regulations of Australia (permit no. 1714374; University of Melbourne). Immediately prior to use, third-stage larvae (L3s) were exsheathed and sterilised by incubation in 0.15% (v/v) bleach at 38 °C for 20 min, followed by washes in […]

[2] = test system: E. Coli (G-) strain ATCC 25922; assay: Antimicrobial growth inhibition (CO-ADD), E. coli; format: cell-based, Escherichia coli
Description: as §1, §2, §3, §4, §5, §6, §7, §8, §9, §10

[3] = test system: K. pneumoniae (G-) strain ATCC 700603; assay: Antimicrobial growth inhibition (CO-ADD), K. pneumoniae; format: cell-based, Klebsiella pneumoniae
Description: as §1, §2, §3, §4, §5, §6, §7, §8, §9, §10

[4] = test system: C. albicans (yeast) ATCC 90028; assay: Antimicrobial growth inhibition (CO-ADD), C. albicans; format: cell-based, Candida albicans
Description: as §1, §2, §3
(§11) The compounds submitted to CO-ADD were evaluated in duplicate (n = 2) against seven microorganisms (five bacteria and two fungi) at a concentration of 32 µg/mL in a 384-well, non-binding surface plate (NBS) for each bacterial/fungal strain, keeping the final DMSO concentration to a maximum of 1% DMSO. All bacteria were cultured in cation-adjusted […]
(§12) Fungal strains were cultured for 3 days on Yeast Extract-Peptone Dextrose (YPD) agar at 30 °C. A yeast suspension of 1 x 10^6 to 5 x 10^6 CFU/mL (as determined by OD530) was prepared from five colonies. The suspension was subsequently diluted and added to each well of the compound-containing plates giving a final cell density of fungi suspension of 2.5 x 10^3 CFU/mL and a total volume of 50 µL. All plates were covered and incubated at 35 °C for 24 h without shaking. […]
as §5, §6, §7, §8, §9
Dose-response evaluations were carried out to estimate the half-maximal inhibitory concentrations (IC50 values) for compounds against Haemonchus contortus (Haecon-5 strain) exsheathed third-stage larvae (xL3s). H. contortus were maintained in experimental sheep and procured in accordance with the institutional animal ethics guidelines and the regulations of Australia (permit no. 1714374; University of Melbourne). Immediately prior to use, third-stage larvae (L3s) were exsheathed and sterilised by incubation in 0.15% (v/v) bleach at 38 °C for 20 min, followed by washes in sterile saline at room temperature (22-24 °C). […]

[5] = test system: C. neoformans var. grubii strain ATCC 208821; assay: Antimicrobial growth inhibition (CO-ADD), C. neoformans; format: cell-based, Cryptococcus neoformans
Description: as §1, §2, §3, §11, §12
as §5, with “Growth inhibition of C. albicans was determined measuring absorbance at 530 nm (OD530), while the growth inhibition of C. neoformans was determined measuring the difference in absorbance between 600 and 570 nm (OD600-570), after the addition of resazurin (0.001% final concentration) and incubation at 35 °C for an additional 2 h.” for “2 h.”
as §6, §7, §8, §9
Dose-response evaluations were carried out to estimate the half-maximal inhibitory concentrations (IC50 values) for compounds against Haemonchus contortus (Haecon-5 strain) exsheathed third-stage larvae (xL3s). H. contortus were maintained in experimental sheep and procured in accordance with the institutional animal ethics guidelines and the […]

[6] = 32 µg/mL, duplicate (n = 2) values

## COC1=C(Br)[C@H](O)[C@@]2(C=C1Br)CC(C(=O)NCCCCCNC(=O)C1=NO[C@]3(C=C(Br)C(OC)=C(Br)[C@@H]3O)C1)=NO2 [Compound 3, homoaerothionin]
Human red blood cells
  Haemolysis (HC10): >32 µg/mL
[1]
  MIC: > 32 µg/mL
[2]; [6]
  % inhibition E. coli: −2.9% and −3.1%
[2]; Escherichia coli, ATCC25922, ATCC 25922, MIC = concentration at which growth inhibited by ≥80%, read-out: MIC E. coli
  MIC: > 32 µg/mL
[3]; [6]
  % inhibition K. pneumoniae: 6.6%
[3]; Klebsiella pneumoniae, ATCC700603, read-out: % inhibition K. pneumoniae, 32 µg/mL, duplicate (n = 2) values
  inhibition at 32 µg/mL: 10.2%
[3]; Klebsiella pneumoniae, ATCC700603, ATCC 700603, read-out: MIC K. pneumoniae
  MIC: > 32 µg/mL
[4]; [6]
  % inhibition C. albicans: 6.3%
[4]; Candida albicans, ATCC90028, read-out: % inhibition C. albicans, 32 µg/mL, duplicate (n = 2) values
  inhibition at 32 µg/mL: 3.4%
[4]; Candida albicans, ATCC90028, ATCC 90028, read-out: MIC C. albicans
  MIC: > 32 µg/mL
[5]; [6]
  % inhibition C. neoformans: 16.1%
[5]; Cryptococcus neoformans, ATCC208821, read-out: % inhibition C. neoformans, 32 µg/mL, duplicate (n = 2) values
  inhibition at 32 µg/mL: 10.6%

From paper PMC9503778, “Targeted Isolation of Antibiotic Brominated Alkaloids from the Marine Sponge Pseudoceratina durissima Using Virtual Screening and Molecular Networking” (Marine Drugs, 2022)
